US10806730B2, “Methods of treating cancer with farnesyltransferase inhibitors” (Kura Oncology, Inc., priority 2017, dated 2020)

Columns and labels:
Assay type in all cases: in vivo, human
[1] = test system: higher risk MDS/CMML subjects; assay: Clinical study of tipifarnib (INT-28) in higher risk MDS/CMML
Procedure: A clinical study of tipifarnib (300 mg bid (twice daily), 3 weeks on/1 week off) was conducted in 82 higher risk MDS/CMML subjects. 67 subjects were transfusion dependent (TD) at study entry, whereby a subject receiving one or several red blood cell (RBC) transfusions during screening and up to the first administration of tipifarnib was classified as TD.
30/67 (45%) MDS subjects were initially classified as having moderate to severe neutropenia, based on their absolute neutrophil count (ANC) of <1,000 cells/μl blood prior to receiving tipifarnib. The ANC of the remaining 37/67 (55%) MDS subjects was ≥1,000 cells/μl blood. 9/30 (30%) MDS subjects with moderate to severe neutropenia and 2/37 (5%) MDS subjects without moderate to severe neutropenia converted to transfusion independence during the tipifarnib study. […] The majority of the subjects that developed transfusion independence were of intermediate (INT) risk of developing AML.

[2] = test system: elderly patients with newly diagnosed, de novo, or secondary AML; assay: Ph3 study AML301, tipifarnib vs BSC
Procedure: (§1) Clinical studies with tipifarnib were performed in newly diagnosed elderly patients with poor risk AML (CTEP-20, Phase 2) and relapsed and refractory AML (INT-17, Phase 2). Patient selection in these studies was not based on genetic markers. Anecdotal evidence of tipifarnib single agent activity was reported. […] Median OS in the overall study was 107 days for the Tipifarnib group and 109 days for the BSC group in AML301.

[3] = test system: newly diagnosed elderly patients with poor risk AML; assay: CTEP-20 Phase 2 tipifarnib study
Procedure: as §1

[4] = test system: relapsed and refractory AML; assay: INT-17 Phase 2 tipifarnib study
Procedure: as §1

[5] = 34 study subjects with outcome and expression data
[6] = CXCR4/CXCR2 expression ratio quartiles 1st-3rd
[7] = bone marrow CXCR4/CXCR2 expression ratio in the upper quartile

How did the “conversion to transfusion independence (TI)” value ([1]; 67 transfusion dependent (TD) subjects, 300 mg bid, 3 weeks on/1 week off) turn out when `Cn1cncc1[C@@](N)(c1ccc(Cl)cc1)c1ccc2c(c1)c(-c1cccc(Cl)c1)cc(=O)n2C` [tipifarnib] was run?
The value was 16%.

And the “conversion to transfusion independence” value ([1]; MDS subjects with neutropenia and high peripheral blast cell count >1%)?
Its value is 11%.

And the “conversion to transfusion independence” value ([1]; MDS subjects with neutropenia and low peripheral blast cell count ≤1%)?
The value was 38%.

And the “conversion to transfusion independence” value ([1]; TD MDS subjects with moderate to severe neutropenia (ANC <1,000 cells/μl))?
Its value is 30%.

What about the “conversion to transfusion independence” value ([1]; TD MDS subjects without moderate to severe neutropenia (ANC ≥1,000 cells/μl)) of the same molecule?
Its value is 5%.

And the “persistence of RBC and platelet transfusion independence” value ([1]; exemplary MDS subject, ANC at screening=400 cells/μl, 300 mg bid, 3 weeks on/1 week off)?
The value was 308 days.

And the “hazard ratio, tipifarnib vs reference therapy” value ([2]; ANC/WBC<0.3 and marrow blasts>60%, N=110, P=0.08)?
Its value is 0.67.

And the Median survival ([2]; ANC/WBC<0.4, WBC>2, platelets>20, N=135)?
Its Median survival is 146 days.

And the “hazard ratio, tipifarnib vs BSC” value ([2]; ANC/WBC<0.4, WBC>2, platelets>20, N=135, P=0.046)?
Its value is 0.7.

And the “median progression free survival (PFS)” value ([2]; BMR<0.1 prior to treatment, N=73)?
The value was 83 days.

And the “median PFS” value ([2]; BMR≥0.1 prior to treatment, N=140)?
Its value is 60 days.

And the “Median OS” value ([2]; overall study)?
Its value is 107 days.

And the “Hazards ratio, Tipifarnib compared with BSC” value ([2]; overall study, N=457, non significant)?
Its value is 1.02.

And the Median survival ([2]; subset with high BM blasts (>40%) and low peripheral blasts (<10%), N=82)?
Its Median survival is 201 days.

And the “HR, tipifarnib vs BSC” value ([2]; subset with high BM blasts (>40%) and low peripheral blasts (<10%), N=82, P=0.019)?
Its value is 0.58.

What about the “Median overall PFS” value [3, 5] of the same molecule?
The value was 84 days.

What about the Median overall survival [3, 5] of the same molecule?
The Median overall survival was 233 days.

What about the “median progression free survival (PFS)” value ([3]; BMR<0.1 prior to treatment, N=57) of the same molecule?
Its value is 93 days.

What about the “median PFS” value ([3]; BMR≥0.1 prior to treatment, N=84) of the same molecule?
The value was 47 days.

What about the “Median survival (FIG. 7A, PFS probabilities)” value [3, 6] of the same molecule?
Its value is 67 days.

What about the “Median survival (FIG. 7B)” value [3, 6] of the same molecule?
Its value is 179 days.

What about the “HR (FIG. 7B, survival), upper quartile vs quartiles 1st-3rd” value ([3]; CXCR4/CXCR2 expression ratio, p=0.07) of the same molecule?
Its value is 0.26.

What about the “HR (FIG. 7A, PFS), upper quartile vs quartiles 1st-3rd” value ([3]; CXCR4/CXCR2 expression ratio, p=0.09) of the same molecule?
Its value is 0.44.

What about the “Median survival (FIG. 7A, PFS probabilities)” value [3, 7] of the same molecule?
Its value is 406 days.

And the “Median survival (FIG. 7B)” value [3, 7]?
Its value is 728 days.

And the overall survival ([4]; 57 subjects with CXCR4/CXCR2 ratio data)?
Its overall survival is 87 days.

What about the “median PFS” value ([4]; AML subjects overexpressing CXCR4, N=8) of the same molecule?
The value was 143 days.

What about the “median PFS” value ([4]; AML subjects with relatively lower levels of CXCR4 expression, N=49) of the same molecule?
The value was 29 days.

And the Median survival ([4]; CXCR4/CXCR2 quintile group 1)?
The Median survival was 56 days.

And the Median survival ([4]; CXCR4/CXCR2 quintile group 2)?
Its Median survival is 78 days.

And the Median survival ([4]; CXCR4/CXCR2 quintile group 3)?
The Median survival was 44 days.

What about the Median survival ([4]; CXCR4/CXCR2 quintile group 4) of the same molecule?
Its Median survival is 105 days.

And the Median survival ([4]; CXCR4/CXCR2 quintile group 5)?
The Median survival was 182 days.

What about the “HR, 5th quintile of CXCR4/CXCR2 ratio vs rest” value ([4]; p=0.04) of the same molecule?
Its value is 0.52.

And the Median survival ([4]; rest of the subjects (not 5th quintile of CXCR4/CXCR2 ratio))?
The Median survival was 74 days.
